Laboratory results reported in patent publication US9227971B2, “Pyrazolo[1,5-a]pyrimidine compounds as mTOR inhibitors” (Merck Sharp & Dohme Corp., priority 2010, dated 2016).

Tests used:
[1] = system: phosphorylated AKT Ser473 (pAKT S473), mTORC2 activity, PC3 cells; assay: mTOR target engagement assay, immunofluorescent cell-based, pAKT S473 readout (mTORC2 activity); conditions: Homo sapiens, PC-3, PC3 cells, compound treatment ninety minutes at 37° C.
Outline: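 After blocking, cells were stained overnight at 4 °C with anti-pAKT S473 antibody, then a fluorescent secondary; inhibition was read as reduced fluorescence intensity.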

[2] = system: phosphorylated 4E-BP1 Thr37/46 (p4E-BP1 Thr37/46), mTORC1 activity, PC3 cells; assay: mTOR target engagement assay, immunofluorescent cell-based, p4E-BP1 Thr37/46 readout (mTORC1 activity); conditions: Homo sapiens, PC-3, PC3 cells, compound treatment ninety minutes at 37° C.; read-out: p4E-BP1 Thr37/46 IC50
Outline: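 PTEN-mutant PC3 prostate cells were treated with serially diluted compound in 5% FBS F12 medium (0.25% DMSO) for ninety minutes at 37° C, glyoxal-fixed, then immunostained overnight at 4° C for p4E-BP1 Thr37/46 with an Alexa Fluor 488 secondary. IC50 came from four-parameter fits of fluorescence, DMSO-only wells defining 100%.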

Structure (SMILES) | IC50 [1] [nM] | IC50 [2] [nM]
[2H]C([2H])([2H])Oc1ccc(-c2ccc(-c3cnn4c(N)c(C(C)=O)c([C@@H]5C[C@H]6CC[C@@H](C5)N6C(=O)c5nnc[nH]5)nc34)cn2)cc1 [Compound 1.1.77, 1-(5-((1R,3s,5S)-8-(4H-1,2,4-triazole-3-carbonyl)-8-azabicyclo[3.2.1]octan-3-yl)-7-amino-3-(6-(4-methoxy-(D3)-phenyl)pyridin-3-yl)pyrazolo[1,5-a]pyrimidin-6-yl)ethanone] | 1 to 100 | 1 to 100
[2H]C([2H])([2H])Oc1ccc(-c2ccc(-c3cnn4c(N)c(C(C)=O)c([C@@H]5C[C@H]6CC[C@@H](C5)N6C(=O)CO)nc34)cn2)cc1 [Compound 1.1.78, 1-((1R,3s,5S)-3-(6-acetyl-7-amino-3-(6-(4-methoxy-(D3)-phenyl)pyridin-3-yl)pyrazolo[1,5-a]pyrimidin-5-yl)-8-azabicyclo[3.2.1]octan-8-yl)-2-hydroxyethanone] | 1 to 100 | 1 to 100
CC(=O)c1c([C@@H]2C[C@H]3CC[C@@H](C2)N3C(=O)c2nnc[nH]2)nc2c(-c3ccc(C)nc3)cnn2c1N [Compound 1.1.79, 1-(5-((1R,3s,5S)-8-(4H-1,2,4-triazole-3-carbonyl)-8-azabicyclo[3.2.1]octan-3-yl)-7-amino-3-(6-methylpyridin-3-yl)pyrazolo[1,5-a]pyrimidin-6-yl)ethanone] | 1 to 100 | 1 to 100
CC(=O)c1c([C@@H]2C[C@H]3CC[C@@H](C2)N3C(=O)c2nnc[nH]2)nc2c(-c3cccnc3)cnn2c1N [Compound 1.1.80, 1-(5-((1R,3s,5S)-8-(4H-1,2,4-triazole-3-carbonyl)-8-azabicyclo[3.2.1]octan-3-yl)-7-amino-3-(pyridin-3-yl)pyrazolo[1,5-a]pyrimidin-6-yl)ethanone] | 100 to 1000 | 100 to 1000
[2H]C([2H])([2H])n1ccc(-c2ccc(-c3cnn4c(N)c(C(C)=O)c([C@@H]5C[C@H]6CC[C@@H](C5)N6C(=O)c5nnc[nH]5)nc34)cn2)n1 [Compound 1.1.82, 1-(5-((1R,3s,5S)-8-(4H-1,2,4-triazole-3-carbonyl)-8-azabicyclo[3.2.1]octan-3-yl)-7-amino-3-(6-(1-methyl-(D3)-1H-pyrazol-3-yl)pyridin-3-yl)pyrazolo[1,5-a]pyrimidin-6-yl)ethanone] | 100 to 1000 | 100 to 1000
CCC(=O)c1ccc(-c2cnn3c(N)c(C(C)=O)c([C@@H]4C[C@H]5CC[C@@H](C4)N5C(=O)c4nnc[nH]4)nc23)cn1 [Compound 1.1.83, 1-(5-(5-((1R,3s,5S)-8-(4H-1,2,4-triazole-3-carbonyl)-8-azabicyclo[3.2.1]octan-3-yl)-6-acetyl-7-aminopyrazolo[1,5-a]pyrimidin-3-yl)pyridin-2-yl)propan-1-one] | 100 to 1000 | 100 to 1000
[2H]C([2H])([2H])n1ccc(-c2ccc(-c3cnn4c(N)c(C(C)=O)c([C@@H]5C[C@H]6CC[C@@H](C5)N6C(=O)CO)nc34)cn2)n1 [Compound 1.1.84, 1-((1R,3s,5S)-3-(6-acetyl-7-amino-3-(6-(1-methyl-(D3)-1H-pyrazol-3-yl)pyridin-3-yl)pyrazolo[1,5-a]pyrimidin-5-yl)-8-azabicyclo[3.2.1]octan-8-yl)-2-hydroxyethanone] | 1 to 100 | 1 to 100
CCC(O)(CC)c1ccc(-c2cnn3c(N)c(C(C)=O)c([C@@H]4C[C@H]5CC[C@@H](C4)N5C(=O)c4nnc[nH]4)nc23)cn1 [Compound 1.1.85, 1-(5-((1R,3s,5S)-8-(4H-1,2,4-triazole-3-carbonyl)-8-azabicyclo[3.2.1]octan-3-yl)-7-amino-3-(6-(3-hydroxypentan-3-yl)pyridin-3-yl)pyrazolo[1,5-a]pyrimidin-6-yl)ethanone] | 1000 to 10000 | 1000 to 10000
CC(=O)c1c([C@@H]2C[C@H]3CC[C@@H](C2)N3C(=O)c2nnc[nH]2)nc2c(-c3ccc(-c4ccn(CF)n4)nc3)cnn2c1N [Compound 1.1.86, 1-(5-((1R,3s,5S)-8-(4H-1,2,4-triazole-3-carbonyl)-8-azabicyclo[3.2.1]octan-3-yl)-7-amino-3-(6-(1-(fluoromethyl)-1H-pyrazol-3-yl)pyridin-3-yl)pyrazolo[1,5-a]pyrimidin-6-yl)ethanone] | 1 to 100 | 1 to 100
CC(=O)c1c([C@@H]2C[C@H]3CC[C@@H](C2)N3C(=O)CO)nc2c(-c3ccc(-c4ccn(CF)n4)nc3)cnn2c1N [Compound 1.1.87, 1-((1R,3s,5S)-3-(6-acetyl-7-amino-3-(6-(1-(fluoromethyl)-1H-pyrazol-3-yl)pyridin-3-yl)pyrazolo[1,5-a]pyrimidin-5-yl)-8-azabicyclo[3.2.1]octan-8-yl)-2-hydroxyethanone] | 1 to 100 | 1 to 100
CC(=O)c1c([C@@H]2C[C@H]3CC[C@@H](C2)N3C(=O)c2nnc[nH]2)nc2c(-c3ccc(-c4ncn(C)n4)nc3)cnn2c1N [Compound 1.1.88, 1-(5-((1R,3s,5S)-8-(4H-1,2,4-triazole-3-carbonyl)-8-azabicyclo[3.2.1]octan-3-yl)-7-amino-3-(6-(1-methyl-1H-1,2,4-triazol-3-yl)pyridin-3-yl)pyrazolo[1,5-a]pyrimidin-6-yl)ethanone] | 1 to 100 | 1 to 100
CC(=O)c1c([C@@H]2C[C@H]3CC[C@@H](C2)N3C(=O)CO)nc2c(-c3ccc(-c4ncn(C)n4)nc3)cnn2c1N [Compound 1.1.89, 1-((1R,3s,5S)-3-(6-acetyl-7-amino-3-(6-(1-methyl-1H-1,2,4-triazol-3-yl)pyridin-3-yl)pyrazolo[1,5-a]pyrimidin-5-yl)-8-azabicyclo[3.2.1]octan-8-yl)-2-hydroxyethanone] | 100 to 1000 | 100 to 1000
CC(=O)c1c([C@@H]2C[C@H]3CC[C@@H](C2)N3C(=O)CO)nc2c(-c3ccc(C)nc3)cnn2c1N [Compound 1.1.90, 1-((1R,3s,5S)-3-(6-acetyl-7-amino-3-(6-methylpyridin-3-yl)pyrazolo[1,5-a]pyrimidin-5-yl)-8-azabicyclo[3.2.1]octan-8-yl)-2-hydroxyethanone] | 1000 to 10000 | 1000 to 10000
CC(=O)c1c([C@@H]2C[C@H]3CC[C@@H](C2)N3C(=O)c2nnc[nH]2)nc2c(-c3ccc(-c4nc[nH]n4)nc3)cnn2c1N [Compound 1.1.91, 1-(3-(6-(1H-1,2,4-triazol-3-yl)pyridin-3-yl)-5-((1R,3s,5S)-8-(4H-1,2,4-triazole-3-carbonyl)-8-azabicyclo[3.2.1]octan-3-yl)-7-aminopyrazolo[1,5-a]pyrimidin-6-yl)ethanone] | 1 to 100 | 1 to 100
CC(=O)c1c([C@@H]2C[C@H]3CC[C@@H](C2)N3C(=O)CO)nc2c(-c3ccc(-c4nn(C)cc4F)nc3)cnn2c1N [Compound 1.1.94, 1-((1R,3s,5S)-3-(6-acetyl-7-amino-3-(6-(4-fluoro-1-methyl-1H-pyrazol-3-yl)pyridin-3-yl)pyrazolo[1,5-a]pyrimidin-5-yl)-8-azabicyclo[3.2.1]octan-8-yl)-2-hydroxyethanone] | 100 to 1000 | 100 to 1000
CC(=O)c1c([C@@H]2C[C@H]3CC[C@@H](C2)N3C(=O)c2nnc[nH]2)nc2c(-c3ccc(-c4cc(C)[nH]n4)nc3)cnn2c1N [Compound 1.1.95, 1-(5-((1R,3s,5S)-8-(4H-1,2,4-triazole-3-carbonyl)-8-azabicyclo[3.2.1]octan-3-yl)-7-amino-3-(6-(5-methyl-1H-pyrazol-3-yl)pyridin-3-yl)pyrazolo[1,5-a]pyrimidin-6-yl)ethanone] | 1000 to 10000 | 1000 to 10000
CC(=O)c1c([C@@H]2C[C@H]3CC[C@@H](C2)N3C(=O)CO)nc2c(-c3ccc(-c4cc(C)[nH]n4)nc3)cnn2c1N [Compound 1.1.96, 1-((1R,3s,5S)-3-(6-acetyl-7-amino-3-(6-(5-methyl-1H-pyrazol-3-yl)pyridin-3-yl)pyrazolo[1,5-a]pyrimidin-5-yl)-8-azabicyclo[3.2.1]octan-8-yl)-2-hydroxyethanone] | > 10000 | > 10000
CCc1ccc(-c2cnn3c(N)c(C(C)=O)c([C@@H]4C[C@H]5CC[C@@H](C4)N5C(=O)c4nnc[nH]4)nc23)cn1 [Compound 1.1.99, 1-(5-((1R,3s,5S)-8-(4H-1,2,4-triazole-3-carbonyl)-8-azabicyclo[3.2.1]octan-3-yl)-7-amino-3-(6-ethylpyridin-3-yl)pyrazolo[1,5-a]pyrimidin-6-yl)ethanone] | 1 to 100 | 1 to 100
CC(=O)c1c([C@@H]2C[C@H]3CC[C@@H](C2)N3C(=O)c2nnc[nH]2)nc2c(-c3ccc(-c4cc(F)cc(F)c4)nc3)cnn2c1N [Compound 1.1.100, 1-(5-((1R,3r,5S)-8-(4H-1,2,4-triazole-3-carbonyl)-8-azabicyclo[3.2.1]octan-3-yl)-7-amino-3-(6-(3,5-difluorophenyl)pyridin-3-yl)pyrazolo[1,5-a]pyrimidin-6-yl)ethanone] | 100 to 1000 | 100 to 1000
CC(=O)c1c([C@@H]2C[C@H]3CC[C@@H](C2)N3C(=O)CO)nc2c(-c3ccc(-c4cc(F)cc(F)c4)nc3)cnn2c1N [Compound 1.1.101, 1-((1R,3r,5S)-3-(6-acetyl-7-amino-3-(6-(3,5-difluorophenyl)pyridin-3-yl)pyrazolo[1,5-a]pyrimidin-5-yl)-8-azabicyclo[3.2.1]octan-8-yl)-2-hydroxyethanone] | 100 to 1000 | 100 to 1000
CC(=O)c1c([C@@H]2C[C@H]3CC[C@@H](C2)N3C(=O)CO)nc2c(-c3ccc(-c4nc[nH]n4)nc3)cnn2c1N [Compound 1.1.102, 1-((1R,3s,5S)-3-(3-(6-(1H-1,2,4-triazol-3-yl)pyridin-3-yl)-6-acetyl-7-aminopyrazolo[1,5-a]pyrimidin-5-yl)-8-azabicyclo[3.2.1]octan-8-yl)-2-hydroxyethanone] | 1 to 100 | 1 to 100
